Experimental findings from patent US20190069548A1, “AGENT FOR CONTROLLING THRIPS AND USE THEREOF” (RIKEN, priority 2016, published 2019) are described below.

What all share (format): in vivo
Experiment [1] relates to Frankliniella occidentalis. Put plainly: Two-plant choice test of thrips repellency after spraying (Examples 1 and 2). Conditions: for repellency against thrips (number of thrips on plant vs water control): 100 μM solution sprayed; for repellency against thrips (number of thrips on plant vs water control) / repellency against Frankliniella occidentalis: thrips released two days after, counted 24 h later; for repellency against Frankliniella occidentalis: 100 μM PDJ sprayed. Here is the method:
Then, 100 μM PDJ solution was directly sprayed on one of the two plant individuals by use of a spraying device. On the other one of the two plant individuals, only water was sprayed similarly. This plant individual on which only water was sprayed was a control. Two days after the above treatment, 30 female adult thrips of Frankliniella occidentalis were released at a middle point between the two plant individuals. Twenty-four hours after that release of Frankliniella occidentalis, the number of thrips on each plant individual was counted so that which one of the plant individuals the thrips had moved to was found. With use of 100 μM JA solution, a similar experiment was carried out. Further, similar experiments with use of the 100 μM PDJ solution and the 100 μM JA solution were carried out on tomato (Solanum lycopersicum) three weeks after seeding.
(§1) Then, 100 μM PDJ solution was sprayed on an entire aerial part of only one of the two plant individuals by use of a spraying device. On the other one of the two plant individuals, only water was sprayed by a similar method. This plant individual on which only water was sprayed was a control. Two days after the above spraying, 30 female adult thrips of Frankliniella occidentalis were released at a middle point between the two plant individuals. Twenty-four hours after that release of Frankliniella occidentalis, the number of thrips on each plant individual was counted so that which one of the plant individuals the thrips had moved to was found.
Further, the target plant was changed to crown daisy (Glebionis coronaria) of the family Asteraceae, and repellency against thrips was studied similarly.

For a further experiment, the system named is Thrips tabaci Lindeman. Put plainly: Two-plant choice test of thrips repellency after spraying (Example 3). Conditions: 100 μM PDJ sprayed, thrips released two days after, counted 24 h later. Here is the method: Then, 100 μM PDJ was sprayed on an entire aerial part of only one of the two plant individuals by use of a spraying device. On the other one of the two plant individuals, only water was sprayed by a similar method. This plant individual on which only water was sprayed was a control. Two days after the above spraying, 30 female adult thrips of Thrips tabaci Lindeman were released at a middle point between the two plant individuals. Twenty-four hours later, the number of Thrips tabaci Lindeman on each plant individual was counted so that which one of the plant individuals the thrips had moved to was found. As a result, with regard to the green pepper (bell pepper) (Capsicum annuum L. ‘grossum’), an attachment rate of Thrips tabaci Lindeman was approximately 40% relative to that of the control. Meanwhile, with regard to cabbage (Brassica oleracea var. capitata), an attachment rate of Thrips tabaci Lindeman was approximately 40% relative to that of the control.

The subject of a further experiment is Frankliniella intonsa. Put plainly: Two-plant choice test of thrips repellency after spraying (Example 4). Conditions: 100 μM PDJ sprayed, thrips released two days after, counted 24 h later. The procedure: as §1, with “intonsa” for “occidentalis”, “intonsa,” for “occidentalis,”
The subject of experiment [2] is Frankliniella occidentalis. Description: Repeated spraying on tomato, thrips count on third and higher-order true leaves (Example 5). As to conditions: counted forty days after release. The procedure: Then, 100 μM PDJ solution was directly prayed on an entire aerial part of only one of the two plant individuals by use of a spraying device. The above spraying was carried out 3 times, 4 times or 5 times at intervals of 5 to 7 days. On the other one of the two plant individuals, only water was sprayed by a similar method. This plant individual on which only water was sprayed was a control. Four days after the last spraying, 30 female adult thrips of Frankliniella occidentalis were released at a middle point between the two plant individuals. Forty days after that release of Frankliniella occidentalis, the number of thrips on the third and higher-order true leaves was counted. […] In the case of the plant individual on which the PDJ solution was sprayed 3 times, the total number of thrips attached to the third and higher-order true leaves was approximately 20% relative to that of the control. In the case of the plant individual on which the PDJ solution was sprayed 4 times or 5 times, the total number of thrips attached to the third and higher-order true leaves was 0% relative to that of the control. In this way, it was clarified that in a case where spraying is carried out 4 times or 5 times at intervals of 5 days to 7 days, repellency against thrips is higher than that in a case where spraying is carried out 3 times.

The subject of experiment [3] is Frankliniella occidentalis. Put plainly: Spraying time relative to development of fourth true leaf of tomato, thrips count (Examples 6 and 7). As to conditions: counted six days after release. Here is the method: Then, 100 μM PDJ solution was sprayed on an entire aerial part of only one of the two plant individuals by use of a spraying device. On the other one of the two plant individuals, only water was sprayed by a similar method. This plant individual on which only water was sprayed was a control. The above spraying was carried out at time points 3 days, 7 days, 10 days and 15 days after the start of development of the fourth true leaf. Four days after the above spraying, 30 female adult thrips of Frankliniella occidentalis were released at a middle point between the two plant individuals. Six days after that release of Frankliniella occidentalis, the number of thrips on the fourth true leaf was counted. […] The number of thrips attached to the fourth true leaf was approximately 5% of that of the control in the case of the spraying carried out at the time point 3 days after the start of the development of the fourth true leaf, approximately 10% of that of the control in the case of the spraying carried out at the time point 7 days after the start of the development, approximately 40% of that of the control in the case of the spraying carried out at the time point 10 days after the start of the development, and approximately 50% of that of the control in the case of the spraying carried out at the time point 15 days after the start of the development. In this way, it was clarified that in a case where the spraying was carried out within 7 days from the start of development of a new leaf of a plant, repellency against thrips given to the plant is higher than that in a case where spraying is carried out more than 7 days after the start of the development. In a greenhouse whose room temperature was kept in a range of 20° C. to 25° C., two plant individuals of tomato (Solanum lycopersicum) (approximately 1 to 1.5 months after seeding), which had developed 3 true leaves, were placed apart from each other such that a distance of […] was provided and kept between these plant individuals. Then, 100 μM PDJ solution was sprayed on an entire aerial part of only one of the two plant individuals by use of a spraying device. At this time point, the fourth true leaf was not yet developed. On the other one of the two plant individuals, only water was sprayed by a similar method. This plant individual on which only water was sprayed was a control. Four days after the above spraying, 30 female adult thrips of Frankliniella occidentalis were released at a middle point between the two plant individuals. Six days after that release of Frankliniella occidentalis, the number of thrips on the fourth true leaf was counted. […] The number of thrips attached to the fourth true leaf was approximately 100% of that of the control.

Setting [4] is: 100 μM PDJ sprayed when fourth true leaf was not yet developed (Example 7).

For `CC/C=C\CC1C(=O)CCC1CC(=O)OC` (stereo not shown) [JA, methyl jasmonate, reference compound], the “repellency against thrips (number of thrips on plant vs water control)” value in experiment [1] (Arabidopsis thaliana) and in experiment [1] (tomato (Example 1)) was “can give repellency against thrips” throughout.
As to prohydrojasmon [PDJ], the “repellency against thrips (number of thrips on plant vs water control)” value in experiment [1] (Arabidopsis thaliana) and in experiment [1] (tomato (Example 1)) was “can give repellency against thrips” in each case. Besides, the “repellency against Frankliniella occidentalis” value in experiment [1] (cabbage), in experiment [1] (chrysanthemum), in experiment [1] (cucumber), in experiment [1] (green pepper), in experiment [1] (strawberry) and in experiment [1] (tomato (Example 2)) was “sufficient repellency” throughout. Moreover, the repellency against thrips entry in experiment [1] (crown daisy (Glebionis coronaria), studied similarly to Example 2) is listed as “repellency against thrips is given”. The “attachment rate of Thrips tabaci Lindeman relative to that of the control” value in the experiment with Thrips tabaci Lindeman (cabbage) and in the experiment with Thrips tabaci Lindeman (green pepper) was “approximately 40%” throughout. The “repellency against Frankliniella intonsa” value in the experiment with Frankliniella intonsa (cabbage), in the experiment with Frankliniella intonsa (chrysanthemum), in the experiment with Frankliniella intonsa (cucumber), in the experiment on Frankliniella intonsa (green pepper), in the experiment on Frankliniella intonsa (strawberry) and with Frankliniella intonsa (tomato) was “sufficient repellency” each time. Moreover, the “total number of thrips attached to the third and higher-order true leaves relative to that of the control” value in experiment [2] (100 μM PDJ sprayed 3 times at intervals of 5 to 7 days) is “approximately 20%”; in experiment [2] (100 μM PDJ sprayed 4 times at intervals of 5 to 7 days), 0%; in experiment [2] (100 μM PDJ sprayed 5 times at intervals of 5 to 7 days), 0%. Also, the “number of thrips attached to the fourth true leaf, of that of the control” value in experiment [3] (100 μM PDJ sprayed 3 days after start of development of fourth true leaf) is “approximately 5%”; in experiment [3] (100 μM PDJ sprayed 7 days after start of development of fourth true leaf), “approximately 10%”; in experiment [3] (100 μM PDJ sprayed 10 days after start of development of fourth true leaf), “approximately 40%”; in experiment [3] (100 μM PDJ sprayed 15 days after start of development of fourth true leaf) it was “approximately 50%”; in experiment [3] (setting [4]) it was “approximately 100%”. Also, the “total number of thrips attached to the first to third true leaves vs control” value in experiment [3] (setting [4]) is listed as “much smaller than that of the control”.
